Test results from patent publication US9216999B2, “Substituted pyrrolo[2,3-h][1,6]naphthyridines and compositions thereof as JAK inhibitors” (priority 2011, dated 2015).

How the values were obtained:
Assay type in all cases: biochemical
Settings in all cases: ATP 100 μM
JAK3 = JAK3 (Homo sapiens (Human), UniProt P52333); assay: Enzyme assay (Assay Example^a 1), JAK3
JAK1 = JAK1 (Homo sapiens (Human), UniProt P23458); assay: Enzyme assay (Assay Example^a 1), JAK1
JAK2 = JAK2 (Homo sapiens (Human), UniProt O60674); assay: Enzyme assay (Assay Example^a 1), JAK2
Tyk2 = Tyk2 (Homo sapiens (Human), UniProt P29597); assay: Enzyme assay (Assay Example^a 1), Tyk2
Sequence of Tyk2 (P29597 whole entry): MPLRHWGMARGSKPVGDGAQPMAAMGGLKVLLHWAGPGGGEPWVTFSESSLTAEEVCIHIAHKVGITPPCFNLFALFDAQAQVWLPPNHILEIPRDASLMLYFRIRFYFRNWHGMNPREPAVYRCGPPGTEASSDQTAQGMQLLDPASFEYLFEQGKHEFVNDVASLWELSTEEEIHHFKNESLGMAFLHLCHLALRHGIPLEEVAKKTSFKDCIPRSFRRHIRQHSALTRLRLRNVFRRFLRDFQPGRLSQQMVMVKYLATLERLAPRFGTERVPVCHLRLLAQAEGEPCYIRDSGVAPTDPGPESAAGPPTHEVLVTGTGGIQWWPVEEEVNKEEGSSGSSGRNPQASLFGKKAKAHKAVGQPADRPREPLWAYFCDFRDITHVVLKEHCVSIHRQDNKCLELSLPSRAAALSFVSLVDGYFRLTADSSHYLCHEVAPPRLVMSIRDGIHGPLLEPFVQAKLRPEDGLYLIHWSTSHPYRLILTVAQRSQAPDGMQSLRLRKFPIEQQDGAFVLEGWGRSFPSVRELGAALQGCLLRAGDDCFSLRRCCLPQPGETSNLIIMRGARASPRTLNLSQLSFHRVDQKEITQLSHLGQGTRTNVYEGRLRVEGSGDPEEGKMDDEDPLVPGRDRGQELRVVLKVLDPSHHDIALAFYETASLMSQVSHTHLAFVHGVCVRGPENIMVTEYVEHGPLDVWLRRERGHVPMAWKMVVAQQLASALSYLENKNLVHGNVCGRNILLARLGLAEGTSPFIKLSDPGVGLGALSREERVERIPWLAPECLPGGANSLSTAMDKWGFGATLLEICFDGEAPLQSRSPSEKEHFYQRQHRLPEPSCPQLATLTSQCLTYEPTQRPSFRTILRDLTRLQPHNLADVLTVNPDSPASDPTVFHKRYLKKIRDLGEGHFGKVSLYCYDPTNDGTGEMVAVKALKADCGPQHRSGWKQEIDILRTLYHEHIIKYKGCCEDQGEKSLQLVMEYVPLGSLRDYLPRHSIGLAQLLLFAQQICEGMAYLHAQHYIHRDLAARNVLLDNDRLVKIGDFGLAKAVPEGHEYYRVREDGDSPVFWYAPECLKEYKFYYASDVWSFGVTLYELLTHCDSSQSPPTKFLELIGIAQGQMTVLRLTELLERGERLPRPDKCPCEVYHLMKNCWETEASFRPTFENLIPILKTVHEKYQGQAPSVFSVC

Sequence of JAK3 (P52333 whole entry): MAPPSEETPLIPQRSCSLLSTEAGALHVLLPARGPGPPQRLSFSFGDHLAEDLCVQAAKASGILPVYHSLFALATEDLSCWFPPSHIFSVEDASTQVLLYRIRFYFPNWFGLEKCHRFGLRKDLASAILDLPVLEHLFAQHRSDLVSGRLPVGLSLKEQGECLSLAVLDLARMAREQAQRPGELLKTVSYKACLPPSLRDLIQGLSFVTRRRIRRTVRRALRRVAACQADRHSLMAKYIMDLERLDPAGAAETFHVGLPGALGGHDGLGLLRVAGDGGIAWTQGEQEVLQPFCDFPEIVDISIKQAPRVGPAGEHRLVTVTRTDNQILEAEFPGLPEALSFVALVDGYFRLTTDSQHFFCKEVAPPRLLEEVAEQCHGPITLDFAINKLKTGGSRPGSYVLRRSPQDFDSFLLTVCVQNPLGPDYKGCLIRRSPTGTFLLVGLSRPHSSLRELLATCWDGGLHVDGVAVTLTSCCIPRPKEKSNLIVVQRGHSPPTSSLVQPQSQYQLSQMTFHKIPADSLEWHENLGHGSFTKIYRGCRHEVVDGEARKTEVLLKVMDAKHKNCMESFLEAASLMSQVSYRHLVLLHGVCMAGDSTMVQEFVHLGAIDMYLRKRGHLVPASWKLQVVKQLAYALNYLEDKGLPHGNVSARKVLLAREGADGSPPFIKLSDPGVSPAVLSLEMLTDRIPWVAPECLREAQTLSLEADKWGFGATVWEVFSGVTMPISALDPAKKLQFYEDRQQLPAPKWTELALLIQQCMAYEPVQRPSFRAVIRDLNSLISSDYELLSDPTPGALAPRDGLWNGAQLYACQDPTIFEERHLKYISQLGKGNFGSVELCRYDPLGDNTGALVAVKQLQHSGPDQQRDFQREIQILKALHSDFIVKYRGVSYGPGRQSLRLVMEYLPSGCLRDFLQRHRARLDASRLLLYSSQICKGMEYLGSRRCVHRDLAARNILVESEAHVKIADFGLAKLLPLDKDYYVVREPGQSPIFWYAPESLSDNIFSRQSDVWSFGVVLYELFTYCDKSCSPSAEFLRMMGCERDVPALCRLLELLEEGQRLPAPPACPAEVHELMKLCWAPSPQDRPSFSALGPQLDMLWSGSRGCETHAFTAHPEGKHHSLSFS

Row | SMILES | IC50 (JAK3) [µM] | IC50 (JAK1) [µM] | IC50 (JAK2) [µM] | IC50 (Tyk2) [µM]
1 | O=C(CC(F)(F)F)NC[C@H]1CC[C@H](c2nnn3cnc4[nH]ccc4c23)CC1 [compound 373, N-{[trans-4-(7H-Pyrrolo[3,2-e][1,2,3]triazolo[1,5-c]pyrimidin-1-yl)cyclohexyl]methyl}-3,3,3-trifluoropropanamide] | 0.035 | 0.0015 | 0.011 | 0.53
2 | Cc1c(CN2CCC(c3nnn4cnc5[nH]ccc5c34)CC2)c(Cl)nn1CC(F)(F)F [compound 374, 1-{1-[(3-Chloro-5-methyl-1-(2,2,2-trifluoroethyl)-1H-pyrazol-4-yl)methyl]piperidin-4-yl}-7H-pyrrolo[3,2-e][1,2,3]triazolo[1,5-c]pyrimidine] | > 1 | 0.038 | 0.18 | > 1
3 | N#Cc1ccc(N2CCC(c3nnn4cnc5[nH]ccc5c34)CC2)cc1 [compound 376, 4-[4-(7H-Pyrrolo[3,2-e][1,2,3]triazolo[1,5-c]pyrimidin-1-yl)piperidin-1-yl]benzonitrile] | > 1 | 0.019 | 0.19 | > 1
4 | N#Cc1ccc(CN2CCC(c3nnn4cnc5[nH]cc(Cl)c5c34)CC2)cc1 [compound 377, 4-{[4-(9-Chloro-7H-pyrrolo[3,2-e][1,2,3]triazolo[1,5-c]pyrimidin-1-yl)piperidin-1-yl]methyl}benzonitrile] | 0.054 | 0.0045 | 0.017 | > 1
5 | N#CCCN(CCC#N)C1CCC(c2nnn3cnc4[nH]ccc4c23)CC1 (centres unmarked) [compound 380, 3,3′-{[4-(7H-pyrrolo[3,2-e][1,2,3]triazolo[1,5-c]pyrimidin-1-yl)cyclohexyl]azanediyl}dipropanenitrile] | 0.2 | 0.002 | 0.0025 | 0.028
6 | OC1CN(C[C@H]2CC[C@@H](c3nnn4cnc5[nH]ccc5c34)CC2)C1 [compound 403, 1-{[cis-4-(7H-Pyrrolo[3,2-e][1,2,3]triazolo[1,5-c]pyrimidin-1-yl)cyclohexyl]methyl}azetidin-3-ol] | 0.44 | 0.04 | 0.3 | 0.81
7 | c1cc2c(ncn3nnc([C@H]4CC[C@@H](CNC5CC5)CC4)c23)[nH]1 [compound 406, N-{[cis-4-(7H-pyrrolo[3,2-e][1,2,3]triazolo[1,5-c]pyrimidin-1-yl)cyclohexyl]methyl}cyclopropanamine] | > 1 | 0.083 | 0.56 | 0.94
8 | N#CCC(=O)N(CC(F)(F)F)C[C@H]1CC[C@H](c2nnn3cnc4[nH]ccc4c23)CC1 [compound 407, N-{[trans-4-(7H-Pyrrolo[3,2-e][1,2,3]triazolo[1,5-c]pyrimidin-1-yl)cyclohexyl]methyl}-2-cyano-N-(2,2,2-trifluoroethyl)acetamide] | 0.31 | 0.0034 | 0.0073 | 0.13
9 | N#CCC(=O)N(CC#N)C[C@H]1CC[C@H](c2nnn3cnc4[nH]ccc4c23)CC1 [compound 408, N-{[trans-4-(7H-pyrrolo[3,2-e][1,2,3]triazolo[1,5-c]pyrimidin-1-yl)cyclohexyl]methyl}-2-cyano-N-(cyanomethyl)acetamide] | 0.22 | 0.0052 | 0.013 | 0.31
10 | N#CCC(=O)N(C[C@H]1CC[C@H](c2nnn3cnc4[nH]ccc4c23)CC1)C1CC1 [compound 409, N-{[trans-4-(7H-pyrrolo[3,2-e][1,2,3]triazolo[1,5-c]pyrimidin-1-yl)cyclohexyl]methyl}-2-cyano-N-cyclopropylacetamide] | 0.92 | 0.019 | 0.032 | 0.84
11 | Cc1ccc(CN(C[C@H]2CC[C@H](c3nnn4cnc5[nH]ccc5c34)CC2)C(=O)CC#N)o1 [compound 410, N-{[trans-4-(7H-pyrrolo[3,2-e][1,2,3]triazolo[1,5-c]pyrimidin-1-yl)cyclohexyl]methyl}-2-cyano-N-[(5-methylfuran-2-yl)methyl]acetamide] | 0.32 | 0.022 | 0.04 | 0.58
12 | O=C(CC(F)(F)F)N(CC(F)(F)F)C[C@H]1CC[C@H](c2nnn3cnc4[nH]ccc4c23)CC1 [compound 411, N-{[trans-4-(7H-Pyrrolo[3,2-e][1,2,3]triazolo[1,5-c]pyrimidin-1-yl)cyclohexyl]methyl}-3,3,3-trifluoro-N-(2,2,2-trifluoroethyl)propanamide] | 0.17 | 0.0043 | 0.015 | 0.36
13 | N#CCN(C[C@H]1CC[C@H](c2nnn3cnc4[nH]ccc4c23)CC1)C(=O)CC(F)(F)F [compound 412, N-{[trans-4-(7H-Pyrrolo[3,2-e][1,2,3]triazolo[1,5-c]pyrimidin-1-yl)cyclohexyl]methyl}-N-(cyanomethyl)-3,3,3-trifluoropropanamide] | 0.054 | 0.0026 | 0.0056 | 0.32
14 | N#CCN(CC1CC1)C[C@H]1CC[C@H](c2nnn3cnc4[nH]ccc4c23)CC1 [compound 414, 2-({[trans-4-(7H-pyrrolo[3,2-e][1,2,3]triazolo[1,5-c]pyrimidin-1-yl)cyclohexyl]methyl}(cyclopropylmethyl)amino)acetonitrile] | > 1 | 0.0095 | 0.13 | 0.11
15 | FC(F)(F)CN(CC1CC1)C[C@H]1CC[C@H](c2nnn3cnc4[nH]ccc4c23)CC1 [compound 415, N-{[trans-4-(7H-pyrrolo[3,2-e][1,2,3]triazolo[1,5-c]pyrimidin-1-yl)cyclohexyl]methyl}-N-(cyclopropylmethyl)-2,2,2-trifluoroethanamine] | > 1 | 0.03 | 0.095 | > 1
16 | O=S(=O)(O)C[C@H]1CC[C@H](c2nnn3cnc4[nH]ccc4c23)CC1 [compound 416, [trans-4-(7H-Pyrrolo[3,2-e][1,2,3]triazolo[1,5-c]pyrimidin-1-yl)cyclohexyl]methanesulfonic acid] | > 1 | 0.029 | 0.047 | 0.68
17 | O=S(=O)(C[C@H]1CC[C@H](c2nnn3cnc4[nH]ccc4c23)CC1)NC1CC1 [compound 417, 1-[trans-4-(7H-Pyrrolo[3,2-e][1,2,3]triazolo[1,5-c]pyrimidin-1-yl)cyclohexyl]-N-cyclopropylmethanesulfonamide] | 0.38 | 0.0078 | 0.026 | 0.42
18 | CN(C)S(=O)(=O)C[C@H]1CC[C@H](c2nnn3cnc4[nH]ccc4c23)CC1 [compound 418, 1-[trans-4-(7H-pyrrolo[3,2-e][1,2,3]triazolo[1,5-c]pyrimidin-1-yl)cyclohexyl]-N,N-dimethylmethanesulfonamide] | 0.33 | 0.0043 | 0.0084 | 0.17
19 | N#CCNS(=O)(=O)C[C@H]1CC[C@H](c2nnn3cnc4[nH]ccc4c23)CC1 [compound 419, 1-[trans-4-(7H-pyrrolo[3,2-e][1,2,3]triazolo[1,5-c]pyrimidin-1-yl)cyclohexyl]-N-(cyanomethyl)methanesulfonamide] | 0.069 | 0.0035 | 0.0061 | 0.27
20 | O=S(=O)(C[C@H]1CC[C@H](c2nnn3cnc4[nH]ccc4c23)CC1)NCC(F)(F)F [compound 420, 1-[trans-4-(7H-pyrrolo[3,2-e][1,2,3]triazolo[1,5-c]pyrimidin-1-yl)cyclohexyl]-N-(2,2,2-trifluoroethyl)methanesulfonamide] | 0.41 | 0.0057 | 0.015 | 0.3
21 | FC(F)(F)COC1CN(C[C@H]2CC[C@H](c3nnn4cnc5[nH]ccc5c34)CC2)C1 [compound 421, 1-(trans-4-{[3-(2,2,2-Trifluoroethoxy)azetidin-1-yl]methyl}cyclohexyl)-7H-pyrrolo[3,2-e][1,2,3]triazolo[1,5-c]pyrimidine] | > 1 | 0.01 | 0.17 | > 1
22 | CC1(O)CN(C[C@H]2CC[C@H](c3nnn4cnc5[nH]ccc5c34)CC2)C1 [compound 422, 1-{[trans-4-(7H-pyrrolo[3,2-e][1,2,3]triazolo[1,5-c]pyrimidin-1-yl)cyclohexyl]methyl}-3-methylazetidin-3-ol] | > 1 | 0.0028 | 0.051 | 0.13
23 | CN(C)C1CN(C[C@H]2CC[C@H](c3nnn4cnc5[nH]ccc5c34)CC2)C1 [compound 423, 1-{[trans-4-(7H-pyrrolo[3,2-e][1,2,3]triazolo[1,5-c]pyrimidin-1-yl)cyclohexyl]methyl}-N,N-dimethylazetidin-3-amine] | > 1 | 0.077 | 0.72 | > 1
24 | CCN(C)C1CN(C[C@H]2CC[C@H](c3nnn4cnc5[nH]ccc5c34)CC2)C1 [compound 424, 1-{[trans-4-(7H-pyrrolo[3,2-e][1,2,3]triazolo[1,5-c]pyrimidin-1-yl)cyclohexyl]methyl}-N-ethyl-N-methylazetidin-3-amine] | > 1 | 0.044 | 0.48 | > 1
25 | OC1(C(F)(F)F)CN(C[C@H]2CC[C@H](c3nnn4cnc5[nH]ccc5c34)CC2)C1 [compound 425, 1-{[trans-4-(7H-Pyrrolo[3,2-e][1,2,3]triazolo[1,5-c]pyrimidin-1-yl)cyclohexyl]methyl}-3-(trifluoromethyl)azetidin-3-ol] | 0.082 | 0.0025 | 0.022 | 0.37
26 | O=C(NCC(F)(F)F)C1CN(C[C@H]2CC[C@H](c3nnn4cnc5[nH]ccc5c34)CC2)C1 [compound 426, 1-{[trans-4-(7H-Pyrrolo[3,2-e][1,2,3]triazolo[1,5-c]pyrimidin-1-yl)cyclohexyl]methyl}-N-(2,2,2-trifluoroethyl)azetidine-3-carboxamide] | 0.87 | 0.011 | 0.062 | 0.58
